# Read-outs that look alike come from different tables or passages of the source. Positions of bridges follow the written chain, without caps; N, C: chain ends. Non-standard residues stand in square brackets, D forms with d. Residues, ends and D or L forms follow the SMILES beside them. *: point of attachment. Ileψ(thiazoline)Cys = CC[C@H](C)[C@H](N)C1=N[C@H](C(=O)*)CS1; Aoe = N[C@@H](CCCCCC(=O)[C@@H]1CO1)C(=O)O; dOrn = NCCC[C@@H](N)C(=O)O
# What was measured:
# [1] = system: Trichomonas vaginalis G3 trophozoites; settings: for T.vaginalis_Absorbance_Rep1: replicate 1, raw absorbance; for T.vaginalis_Absorbance_Rep2: replicate 2, raw absorbance
# [2] = system: nontumorigenic neonatal foreskin fibroblast (NFF) cell line
# [3] = HTS, parasite screen at 1 µg/mL, replicate 1
# [4] = HTS, parasite screen at 1 µg/mL, replicate 2
# [5] = NFF fibroblast screen at 5 µg/mL, A = active, I = inactive
# [6] = HTS single concentration, parasite screen 1 µg/mL, replicate 1
# [7] = HTS single concentration, parasite screen 1 µg/mL, replicate 2
# [8] = NFF_NS1 screen 5 µg/mL, single concentration
# [9] = HTS, parasite screen at 1 µg/mL
# [10] = HTS replicate 1, parasite screen 1 µg/mL
# [11] = HTS replicate 2, parasite screen 1 µg/mL
# [12] = NFF fibroblasts, single concentration 5 µg/mL
# [13] = replicate 1, parasite screen at 1 µg/mL
# [14] = replicate 2, parasite screen at 1 µg/mL
# [15] = parasite screen at 1 µg/mL, replicate 1
# [16] = parasite screen at 1 µg/mL, replicate 2
# [17] = NFF_NS1 screen at 5 µg/mL, NFF cells
compound,measurement,setting,value
"CC1CCCC(O)CCCCCc2cc(O)cc(O)c2C(=O)O1 (stereo not drawn) [Zearalanol, beta-]",T.vaginalis_%inb_Rep1,[1]; [3],9.65%
same,T.vaginalis_%inb_Rep2,[1]; [4],13.83%
same,NFF_Activity,[2]; [5],I (otherwise these were reported as inactive (I))
CN[C@@H]1C[C@H]2O[C@@](C)([C@@H]1OC)n1c3ccccc3c3c4c(c5c6ccccc6n2c5c31)C(=O)N[C@H]4O [UCN-02],T.vaginalis_%inb_Rep1,[1]; [3],9.65%
same,T.vaginalis_%inb_Rep2,[1]; [4],20.96%
same,NFF_Activity,[2]; [5],A (active (A) compounds having >25% inhibitory activity)
C=C(C)[C@@H]1CC[C@]2(C(=O)O)CC[C@]3(C)[C@H](CC[C@@H]4[C@@]5(C)CC[C@H](O)C(C)(C)[C@@H]5CC[C@]43C)[C@@H]12 [BIA-B1758],T.vaginalis_%inb_Rep1,[1]; [6],14.81%
same,T.vaginalis_%inb_Rep2,[1]; [7],7.30%
same,NFF_Activity,[2]; [8],I (otherwise these were reported as inactive (I))
CS(=O)(=O)c1ccc([C@@H](O)[C@H](N)CF)cc1.Cl [Florfenicol amine HCl],T.vaginalis_%inb_Rep1,[1]; [3],15.67%
same,T.vaginalis_Absorbance_Rep1,[1]; [9],1
same,T.vaginalis_%inb_Rep2,[1]; [4],15.11%
same,T.vaginalis_Absorbance_Rep2,[1]; [9],0.829
same,NFF_Activity,[2]; NFF_NS1 screen at 5 µg/mL,I (otherwise these were reported as inactive (I))
C[C@@H]1NC(=O)[C@H](CCCCCC(=O)[C@@H]2CO2)NC(=O)[C@H]2CCCN2C(=O)[C@H](Cc2ccccc2)NC1=O [BIA-A1402] (cyclo(AF[dP][Aoe])),T.vaginalis_%inb_Rep1,[1]; [6],64.03%
same,T.vaginalis_%inb_Rep2,[1]; [7],94.29%
same,NFF_Activity,[2]; [8],I (otherwise these were reported as inactive (I))
CCCCCCCCCCCCCCCCCC(=O)N[C@H]1CCOC1=O [Octadecanoyl-L-homoserine lactone],T.vaginalis_%inb_Rep1,[1]; [10],12.02%
same,T.vaginalis_%inb_Rep2,[1]; [11],13.47%
same,NFF_Activity,[2]; [12],I (otherwise these were reported as inactive (I))
Dihydrocyclosporin A,T.vaginalis_%inb_Rep1,[1]; [3],11.52%
same,T.vaginalis_Absorbance_Rep1,[1]; [9],0.923
same,T.vaginalis_%inb_Rep2,[1]; [4],13.52%
same,T.vaginalis_Absorbance_Rep2,[1]; [9],0.807
same,NFF_Activity,[2]; NFF_NS1 screen at 5 µg/mL,I (otherwise these were reported as inactive (I))
Cc1c2ccocc-2oc1=O [BIA-K1791],T.vaginalis_%inb_Rep1,[1]; [13],12.47%
same,T.vaginalis_%inb_Rep2,[1]; [14],13.47%
same,NFF_Activity,"[2]; NFF cells, screen at 5 µg/mL",I (otherwise these were reported as inactive (I))
CCCCCCCCCCC[C@@H](C[C@@H]1OC(=O)[C@H]1CCCCCC)OC(=O)[C@H](CC(C)C)NC=O [BIA-T1320],T.vaginalis_%inb_Rep1,[1]; [15],10.91%
same,T.vaginalis_%inb_Rep2,[1]; [16],19.44%
same,NFF_Activity,[2]; [17],I (otherwise these were reported as inactive (I))
CC1(C)CC[C@]2(C(=O)O)CC[C@]3(C)C(=CC[C@@H]4[C@@]5(C)C[C@@H](O)[C@H](O)[C@@](C)(CO)[C@@H]5CC[C@]43C)[C@@H]2C1 [BIA-A1754],T.vaginalis_%inb_Rep1,[1]; [6],13.25%
same,T.vaginalis_%inb_Rep2,[1]; [7],12.44%
same,NFF_Activity,[2]; [8],I (otherwise these were reported as inactive (I))
C=C(C)[C@@H]1CC[C@]2(C(=O)OC)CC[C@]3(C)[C@H](CC[C@@H]4[C@@]5(C)CC[C@H](O)C(C)(C)[C@@H]5CC[C@]43C)[C@@H]12 [BIA-M1757],T.vaginalis_%inb_Rep1,[1]; [6],14.81%
same,T.vaginalis_%inb_Rep2,[1]; [7],16.56%
same,NFF_Activity,[2]; [8],I (otherwise these were reported as inactive (I))
CC(=O)NCCc1c[nH]c2ccc(O)cc12 [BIA-A1738],T.vaginalis_%inb_Rep1,[1]; [6],13.41%
same,T.vaginalis_%inb_Rep2,[1]; [7],15.18%
same,NFF_Activity,[2]; [8],I (otherwise these were reported as inactive (I))
CC1C=CC=CC=CC=CC=CC=CC=CC(OC2OC(C)C(O)C(N)C2O)CC2OC(O)(CC(O)CC(O)C(O)CCC(O)CC(O)CC(=O)OC(C)C(C)C1O)CC(O)C2C(=O)O (stereo not drawn) [BIA-A1441],T.vaginalis_%inb_Rep1,[1]; [6],13.68%
same,T.vaginalis_%inb_Rep2,[1]; [7],14.03%
same,NFF_Activity,[2]; [8],I (otherwise these were reported as inactive (I))
CN(N=O)C(=O)N[C@@H]1[C@@H](O)[C@H](O)[C@@H](CO)O[C@@H]1O [BIA-S1186],T.vaginalis_%inb_Rep1,[1]; [15],9.02%
same,T.vaginalis_%inb_Rep2,[1]; [16],7.62%
same,NFF_Activity,[2]; [17],I (otherwise these were reported as inactive (I))
O=C1NCc2nc3ccccc3c(=O)n2-c2ccccc21 [BIA-S1678],T.vaginalis_%inb_Rep1,[1]; [15],10.85%
same,T.vaginalis_%inb_Rep2,[1]; [16],12.61%
same,NFF_Activity,[2]; [17],I (otherwise these were reported as inactive (I))
COc1ccc([C@@H]2CC(=O)c3c(O)cc(O[C@@H]4O[C@H](CO[C@@H]5O[C@@H](C)[C@H](O)[C@@H](O)[C@H]5O)[C@@H](O)[C@H](O)[C@H]4O)cc3O2)cc1O [BIA-H1766],T.vaginalis_%inb_Rep1,[1]; [13],15.42%
same,T.vaginalis_%inb_Rep2,[1]; [14],4.23%
same,NFF_Activity,"[2]; NFF cells, screen at 5 µg/mL",I (otherwise these were reported as inactive (I))
CCCCCCCCCCCCCC(=O)N[C@H]1CCOC1=O [BIA-T1499],T.vaginalis_%inb_Rep1,[1]; [15],6.40%
same,T.vaginalis_%inb_Rep2,[1]; [16],13.16%
same,NFF_Activity,[2]; [17],I (otherwise these were reported as inactive (I))
C=CC(C)(C)[C@@]12C[C@H]3C(=O)N/C(=C/c4c[nH]cn4)C(=O)N3[C@@H]1Nc1ccccc12 [BIA-R1083],T.vaginalis_%inb_Rep1,[1]; [15],13.69%
same,T.vaginalis_%inb_Rep2,[1]; [16],4.87%
same,NFF_Activity,[2]; [17],A (active (A) compounds having >25% inhibitory activity)
Orfamide A,T.vaginalis_%inb_Rep1,[1]; [10],9.99%
same,T.vaginalis_%inb_Rep2,[1]; [11],10.90%
same,NFF_Activity,[2]; [12],I (otherwise these were reported as inactive (I))
CCC(=O)[C@@H](C)[C@@H](O)[C@H](C)C[C@@H](C)[C@H]1OC(=O)C[C@@]2(O)CC=C(C)[C@H](O2)/C(C)=C/CCC[C@@H](O[C@H]2C[C@@H](OC(N)=O)[C@H](O)[C@@H](C)O2)/C=C/[C@H](C)C[C@H]1C [Venturicidin A],T.vaginalis_%inb_Rep1,[1]; [3],9.49%
same,T.vaginalis_%inb_Rep2,[1]; [4],12.92%
same,NFF_Activity,[2]; [5],I (otherwise these were reported as inactive (I))
COC(=O)C1(O)CC2OC1(C)n1c3ccccc3c3c4c(c5c6ccccc6n2c5c31)C(=O)NC4 (stereo not drawn) [BIA-K1225],T.vaginalis_%inb_Rep1,[1]; [13],61.16%
same,T.vaginalis_%inb_Rep2,[1]; [14],66.84%
same,NFF_Activity,"[2]; NFF cells, screen at 5 µg/mL",A (active (A) compounds having >25% inhibitory activity)
CC(=O)NCCc1c[nH]c2ccccc12 [BIA-A1732],T.vaginalis_%inb_Rep1,[1]; [6],14.43%
same,T.vaginalis_%inb_Rep2,[1]; [7],33.62%
same,NFF_Activity,[2]; [8],I (otherwise these were reported as inactive (I))
CO[C@H]1C[C@@H]2CC[C@@H](C)[C@@](O)(O2)C(=O)C(=O)N2CCCC[C@H]2C(=O)O[C@H]([C@H](C)C[C@@H]2CC[C@@H](O)[C@H](OC)C2)CC(=O)[C@H](C)/C=C(\C)[C@@H](O)[C@@H](OC)C(=O)[C@H](C)C[C@H](C)/C=C/C=C/C=C/1C [BIA-R1183],T.vaginalis_%inb_Rep1,[1]; [15],10.28%
same,T.vaginalis_%inb_Rep2,[1]; [16],12.55%
same,NFF_Activity,[2]; [17],I (otherwise these were reported as inactive (I))
CC[C@H](C)[C@H]1O[C@]2(CC[C@@H]1C)C[C@@H]1C[C@@H](C/C=C(\C)[C@@H](O)[C@@H](C)/C=C/C=C3\CO[C@@H]4[C@H](O)C(C)=C[C@@H](C(=O)O1)[C@]34O)O2 [BIA-I1151],T.vaginalis_%inb_Rep1,[1]; [13],12.98%
same,T.vaginalis_%inb_Rep2,[1]; [14],12.38%
same,NFF_Activity,"[2]; NFF cells, screen at 5 µg/mL",I (otherwise these were reported as inactive (I))
CC[C@H](C)[C@H](N)C1=N[C@H](C(=O)N[C@@H](CC(C)C)C(=O)N[C@H](CCC(=O)O)C(=O)N[C@H](C(=O)N[C@H]2CCCCNC(=O)[C@H](CC(N)=O)NC(=O)[C@@H](CC(=O)O)NC(=O)[C@H](Cc3cnc[nH]3)NC(=O)[C@@H](Cc3ccccc3)NC(=O)[C@H]([C@@H](C)CC)NC(=O)[C@@H](CCCN)NC2=O)[C@@H](C)CC)CS1 [BIA-B1784] ({Ileψ(thiazoline)Cys}-L[dE]IK[dOrn]I[dF]H[dD]N; lactam 4-C),T.vaginalis_%inb_Rep1,[1]; [6],15.89%
same,T.vaginalis_%inb_Rep2,[1]; [7],9.69%
same,NFF_Activity,[2]; [8],I (otherwise these were reported as inactive (I))
CCOCCO[C@@H]1CC[C@@H](C[C@@H](C)[C@@H]2CC(=O)[C@H](C)/C=C(\C)[C@@H](O)[C@@H](OC)C(=O)[C@H](C)C[C@H](C)/C=C/C=C/C=C(\C)[C@@H](OC)C[C@@H]3CC[C@@H](C)[C@@](O)(O3)C(=O)C(=O)N3CCCC[C@H]3C(=O)O2)C[C@H]1OC [Umirolimus],T.vaginalis_%inb_Rep1,[1]; [3],9.81%
same,T.vaginalis_%inb_Rep2,[1]; [4],13.47%
same,NFF_Activity,[2]; [5],I (otherwise these were reported as inactive (I))
CC[C@H]1OC(=O)[C@H](C)[C@@H](O[C@H]2C[C@@](C)(OC)[C@@H](O)[C@H](C)O2)[C@H](C)[C@@H](O[C@@H]2O[C@H](C)C[C@H](N(C)C)[C@H]2O)[C@@]2(C)CC(C)=C(O2)[C@H](C)[C@@H](O)[C@]1(C)O [Erythromycin A enol ether],T.vaginalis_%inb_Rep1,[1]; [3],5.17%
same,T.vaginalis_Absorbance_Rep1,[1]; [9],0.805
same,T.vaginalis_%inb_Rep2,[1]; [4],18.87%
same,T.vaginalis_Absorbance_Rep2,[1]; [9],0.881
same,NFF_Activity,[2]; NFF_NS1 screen at 5 µg/mL,I (otherwise these were reported as inactive (I))
